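Briefly, cells in 96-well plates were exposed to five compound concentrations for 48 h, and endpoints were estimated by linear interpolation. GI50 is the concentration that inhibits growth by half. TGI: total growth inhibition.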
How the values were obtained:
Assay in all cases: NCI tumour cell line growth inhibition, 48 h
786-0 renal = tested on: 786-0 renal
A498 renal = tested on: A498 renal
A549 NSCLC = tested on: A549 NSCLC
ACHN renal = tested on: ACHN renal
BT-549 breast = tested on: BT-549 breast
CAKI-1 renal = tested on: CAKI-1 renal
CCRF-CEM leukemia = tested on: CCRF-CEM leukemia
COLO 205 colon = tested on: COLO 205 colon
DU-145 prostate = tested on: DU-145 prostate
EKVX NSCLC = tested on: EKVX NSCLC
HCC-2998 colon = tested on: HCC-2998 colon
HCT-116 colon = tested on: HCT-116 colon
HCT-15 colon = tested on: HCT-15 colon
HL-60(TB) leukemia = tested on: HL-60(TB) leukemia
HOP-62 NSCLC = tested on: HOP-62 NSCLC
HOP-92 NSCLC = tested on: HOP-92 NSCLC
HS 578T breast = tested on: HS 578T breast
HT29 colon = tested on: HT29 colon
IGROV1 ovarian = tested on: IGROV1 ovarian
K-562 leukemia = tested on: K-562 leukemia
KM12 colon = tested on: KM12 colon
LOX IMVI melanoma = tested on: LOX IMVI melanoma
M14 melanoma = tested on: M14 melanoma
MALME-3M melanoma = tested on: MALME-3M melanoma
MCF7 breast = tested on: MCF7 breast
MDA-MB-231 breast = tested on: MDA-MB-231 breast
MDA-MB-435 = tested on: MDA-MB-435
MDA-MB-468 breast = tested on: MDA-MB-468 breast
MOLT-4 leukemia = tested on: MOLT-4 leukemia
NCI-H226 lung = tested on: NCI-H226 lung
NCI-H23 lung = tested on: NCI-H23 lung
NCI-H460 lung = tested on: NCI-H460 lung
NCI-H522 lung = tested on: NCI-H522 lung
NCI/ADR-RES ovarian = tested on: NCI/ADR-RES ovarian
OVCAR-3 ovarian = tested on: OVCAR-3 ovarian
OVCAR-4 ovarian = tested on: OVCAR-4 ovarian
OVCAR-5 ovarian = tested on: OVCAR-5 ovarian
OVCAR-8 ovarian = tested on: OVCAR-8 ovarian
PC-3 prostate = tested on: PC-3 prostate
RPMI-8226 leukemia = tested on: RPMI-8226 leukemia
RXF 393 renal = tested on: RXF 393 renal
SF-268 CNS = tested on: SF-268 CNS
SF-295 CNS = tested on: SF-295 CNS
SF-539 CNS = tested on: SF-539 CNS
SK-MEL-2 melanoma = tested on: SK-MEL-2 melanoma
SK-MEL-28 melanoma = tested on: SK-MEL-28 melanoma
SK-MEL-5 melanoma = tested on: SK-MEL-5 melanoma
SK-OV-3 ovarian = tested on: SK-OV-3 ovarian
SN12C renal = tested on: SN12C renal
SNB-19 CNS = tested on: SNB-19 CNS
SNB-75 CNS = tested on: SNB-75 CNS
SR leukemia = tested on: SR leukemia
SW-620 colon = tested on: SW-620 colon
T-47D breast = tested on: T-47D breast
TK-10 renal = tested on: TK-10 renal
U251 CNS = tested on: U251 CNS
UACC-257 melanoma = tested on: UACC-257 melanoma
UACC-62 melanoma = tested on: UACC-62 melanoma
UO-31 renal = tested on: UO-31 renal

## Cc1ccc(C(=O)NN2C(=O)/C(=C/C=C/c3ccc([N+](=O)[O-])o3)SC2=S)cc1
786-0 renal
  GI50: 451 nM
  TGI: 1620 nM
A498 renal
  GI50: 9160 nM
  TGI: 22900 nM
A549 NSCLC
  GI50: 2180 nM
  TGI: 5900 nM
ACHN renal
  GI50: 684 nM
  TGI: 1860 nM
BT-549 breast
  GI50: 218 nM
  TGI: 705 nM
CAKI-1 renal
  GI50: 911 nM
  TGI: 2190 nM
CCRF-CEM leukemia
  GI50: 238 nM
  TGI: 826 nM
COLO 205 colon
  GI50: 348 nM
  TGI: 1070 nM
DU-145 prostate
  GI50: 1500 nM
  TGI: 2920 nM
EKVX NSCLC
  GI50: 543 nM
  TGI: 1850 nM
HCC-2998 colon
  GI50: 486 nM
  TGI: 1720 nM
HCT-116 colon
  GI50: 139 nM
  TGI: 290 nM
HCT-15 colon
  GI50: 125 nM
  TGI: 295 nM
HL-60(TB) leukemia
  GI50: 1880 nM
  TGI: 10500 nM
HOP-62 NSCLC
  GI50: 1600 nM
  TGI: 3120 nM
HOP-92 NSCLC
  GI50: 245 nM
  TGI: 893 nM
HS 578T breast
  GI50: 1860 nM
  TGI: 6540 nM
HT29 colon
  GI50: 222 nM
  TGI: 542 nM
IGROV1 ovarian
  GI50: 811 nM
  TGI: 2110 nM
K-562 leukemia
  GI50: 188 nM
  TGI: 3480 nM
KM12 colon
  GI50: 1160 nM
  TGI: 4490 nM
LOX IMVI melanoma
  GI50: 179 nM
  TGI: 352 nM
M14 melanoma
  GI50: 202 nM
  TGI: 436 nM
MALME-3M melanoma
  GI50: 177 nM
  TGI: 378 nM
MCF7 breast
  GI50: 413 nM
  TGI: 1890 nM
MDA-MB-231 breast
  GI50: 185 nM
  TGI: 373 nM
MDA-MB-435
  GI50: 267 nM
  TGI: 800 nM
MDA-MB-468 breast
  GI50: 1500 nM
  TGI: 3120 nM
MOLT-4 leukemia
  GI50: 294 nM
  TGI: 2670 nM
NCI-H226 lung
  GI50: 509 nM
  TGI: 1240 nM
NCI-H23 lung
  GI50: 337 nM
  TGI: 1170 nM
NCI-H460 lung
  GI50: 399 nM
  TGI: 1570 nM
NCI-H522 lung
  GI50: 185 nM
  TGI: 363 nM
NCI/ADR-RES ovarian
  GI50: 1220 nM
  TGI: 2880 nM
OVCAR-3 ovarian
  GI50: 752 nM
  TGI: 2630 nM
OVCAR-4 ovarian
  GI50: 1600 nM
  TGI: 3100 nM
OVCAR-5 ovarian
  GI50: 1430 nM
  TGI: 2790 nM
OVCAR-8 ovarian
  GI50: 292 nM
  TGI: 1020 nM
PC-3 prostate
  GI50: 1140 nM
  TGI: 3000 nM
RPMI-8226 leukemia
  GI50: 267 nM
  TGI: 1170 nM
RXF 393 renal
  GI50: 789 nM
  TGI: 2140 nM
SF-268 CNS
  GI50: 1960 nM
  TGI: 4820 nM
SF-295 CNS
  GI50: 1760 nM
  TGI: 3480 nM
SF-539 CNS
  GI50: 251 nM
  TGI: 718 nM
SK-MEL-2 melanoma
  GI50: 283 nM
  TGI: 904 nM
SK-MEL-28 melanoma
  GI50: 1090 nM
  TGI: 2310 nM
SK-MEL-5 melanoma
  GI50: 337 nM
  TGI: 1240 nM
SK-OV-3 ovarian
  GI50: 1770 nM
  TGI: 3350 nM
SN12C renal
  GI50: 207 nM
  TGI: 535 nM
SNB-19 CNS
  GI50: 1610 nM
  TGI: 3010 nM
SNB-75 CNS
  GI50: 1300 nM
  TGI: 3170 nM
SR leukemia
  GI50: 46.8 nM
  TGI: > 100000 nM
SW-620 colon
  GI50: 181 nM
  TGI: 389 nM
T-47D breast
  GI50: 1730 nM
  TGI: 3480 nM
TK-10 renal
  GI50: 1680 nM
  TGI: 3580 nM
U251 CNS
  GI50: 701 nM
  TGI: 1970 nM
UACC-257 melanoma
  GI50: 1670 nM
  TGI: 3550 nM
UACC-62 melanoma
  GI50: 378 nM
  TGI: 1210 nM
UO-31 renal
  GI50: 1210 nM
  TGI: 2450 nM

Reference: PubChem BioAssay (NCI)
